Where “and” joins values, the source holds several entries; their conditions need not be identical. Equal values may be shown once. Read-outs that look alike come from different tables or passages of the source.
Legend:
[1] = system: human HBCx-34 breast tumor xenograft; test: Antitumor efficacy in HBCx-34 patient-derived breast cancer xenograft (study XTS-1521); assay type: in vivo, mouse
Experimental: Antitumor efficacy of an HER2/HER3 targeting antibody was determined in the context of a combination treatment together with an aromatase inhibitor. […] It was used as single agent and in combination with the aromatase inhibitor Letrozole. The hormone-dependent HBCx-34 patient-derived breast cancer xenograft model established in immunodeficient mice was used as an example of a breast cancer.
The HBCx-34 PDX model was derived from a treatment-naïve primary breast infiltrating ductal carcinoma.
Tumor-bearing mice received estrogen diluted in drinking water (β-oestradiol, 8.5 mg/l), from the date of tumor implant to the date of inclusion. During the treatment period, mice were not supplemented with estrogen.
Tumors of the same passage were transplanted subcutaneously onto 6-24 mice (donor mice, passage (n−1)). When these tumors reached 1000 to 2000 mm^3, donor mice were sacrificed by cervical dislocation, tumors were aseptically excised and dissected. After removing necrotic areas, tumors were cut into fragments measuring approximately 20 mm^3 and transferred in culture medium before grafting.
95 mice were anaesthetized with 100 mg/kg ketamine hydrochloride (batch 5D92, Exp: 2017/03, Virbac) and 10 mg/kg xylazine (batch KP0AX9X, Exp: 2017/08, Bayer), and then skin was aseptized with a chlorhexidine solution, incised at the level of the interscapular region, and a 20 mm^3 tumor fragment was placed in the subcutaneous tissue. Skin was closed with clips. All mice from the same experiment were implanted on the same day.
Treatments were randomly attributed to boxes housing up to 5 mice and were initiated 36 days post implantation of the tumor (42% inclusion rate). The study was terminated following 57 days after the start of treatment.
Tumor volume was evaluated by measuring tumor diameters, with a calliper, biweekly during the experimental period.
The formula TV (mm3)=[length (mm)×width (mm)2]/2 was used, where the length and the width are the longest and the shortest diameters of the tumor, respectively.
A total of 4 groups were used as summarized in the scheme below. Each group initially included 10 mice.
All treatment doses were body weight adjusted at each injection.

HBCx-34 tumors = test: In vivo growth characteristics of the HBCx-34 PDX model (FIG. 4); design: species or system mouse; conditions: animals that did not receive estrogens, vs vehicle
Experimental: FIG. 4. In vivo growth characteristics of the HBCx-34 PDX model. A, IHC characteristics of HBCx-34 PDX tumors. B, Athymic nude mice were engrafted s.c. with HBCx-34 tumors. […] T-tests were performed to compare tumor volumes from estrogen-independent tumors treated with vehicle or Letrozole (*, p<0.05, **, p<0.01, ***, p<0.001).

HBCx-34 PDX model = conditions: model characterisation; cited from earlier work
[2] = MCLA-128 25 mg/kg IP, Letrozole […] PO qdx57
[3] = MCLA-128 25 mg/kg i.p., Letrozole […] p.o. qdx57, day of maximum as in text

**Q.** For `N#Cc1ccc(C(c2ccc(C#N)cc2)n2cncn2)cc1` [Letrozole], which “Mann-Whitney test on tumor volume” value ([1]; DAY 25, vs vehicle group) is on record?
**A.** * (* = P < 0.05)

**Q.** And the “Mann-Whitney test on tumor volume” value ([1]; DAY 28, vs vehicle group)?
**A.** * (* = P < 0.05)

**Q.** And the “Dunn's Multiple Comparison Test on tumor volume” value ([1]; DAY 32, vs MCLA-128 25)?
**A.** * (* = P < 0.05)

**Q.** And the “Mann-Whitney test on tumor volume” value ([1]; DAY 32, vs vehicle group)?
**A.** ** (** = P < 0.01)

**Q.** What about the “Dunn's Multiple Comparison Test on tumor volume” value ([1]; DAY 35, vs MCLA-128 25) of the same compound?
**A.** ** (** = P < 0.01)

**Q.** And the “Dunn's Multiple Comparison Test on tumor volume” value ([1]; DAY 35, vs Vehicle MCLA-128)?
**A.** * (* = P < 0.05)

**Q.** What about the “Mann-Whitney test on tumor volume” value ([1]; DAY 35, vs vehicle group) of the same compound?
**A.** *** (*** = P < 0.001)

**Q.** And the “Dunn's Multiple Comparison Test on tumor volume” value ([1]; DAY 39, vs MCLA-128 25)?
**A.** ** (** = P < 0.01)

**Q.** And the “Dunn's Multiple Comparison Test on tumor volume” value ([1]; DAY 39, vs Vehicle MCLA-128)?
**A.** * (* = P < 0.05)

**Q.** And the “Mann-Whitney test on tumor volume” value ([1]; DAY 39, vs vehicle group)?
**A.** *** (*** = P < 0.001)

**Q.** What about the “Dunn's Multiple Comparison Test on tumor volume” value ([1]; DAY 42, vs MCLA-128 25) of the same compound?
**A.** ** (** = P < 0.01)

**Q.** And the “Dunn's Multiple Comparison Test on tumor volume” value ([1]; DAY 42, vs Vehicle MCLA-128)?
**A.** * (* = P < 0.05)

**Q.** What about the “Mann-Whitney test on tumor volume” value ([1]; DAY 42, vs vehicle group) of the same compound?
**A.** *** (*** = P < 0.001)

**Q.** What about the “Dunn's Multiple Comparison Test on tumor volume” value ([1]; DAY 46, vs MCLA-128 25) of the same compound?
**A.** ** (** = P < 0.01)

**Q.** And the “Dunn's Multiple Comparison Test on tumor volume” value ([1]; DAY 46, vs Vehicle MCLA-128)?
**A.** * (* = P < 0.05)

**Q.** What about the “Mann-Whitney test on tumor volume” value ([1]; DAY 46, vs vehicle group) of the same compound?
**A.** *** (*** = P < 0.001)

**Q.** What about the “Dunn's Multiple Comparison Test on tumor volume” value ([1]; DAY 49, vs MCLA-128 25) of the same compound?
**A.** ** (** = P < 0.01)

**Q.** What about the “Dunn's Multiple Comparison Test on tumor volume” value ([1]; DAY 49, vs Vehicle MCLA-128) of the same compound?
**A.** * (* = P < 0.05)

**Q.** And the “Mann-Whitney test on tumor volume” value ([1]; DAY 49, vs vehicle group)?
**A.** *** (*** = P < 0.001)

**Q.** What about the “Dunn's Multiple Comparison Test on tumor volume” value ([1]; DAY 53, vs MCLA-128 25) of the same compound?
**A.** ** (** = P < 0.01)

**Q.** What about the “Dunn's Multiple Comparison Test on tumor volume” value ([1]; DAY 53, vs Vehicle MCLA-128) of the same compound?
**A.** * (* = P < 0.05)

**Q.** And the “Mann-Whitney test on tumor volume” value ([1]; DAY 53, vs vehicle group)?
**A.** *** (*** = P < 0.001)

**Q.** And the “Dunn's Multiple Comparison Test on tumor volume” value ([1]; DAY 56, vs MCLA-128 25)?
**A.** ** (** = P < 0.01)

**Q.** What about the “Dunn's Multiple Comparison Test on tumor volume” value ([1]; DAY 56, vs Vehicle MCLA-128) of the same compound?
**A.** * (* = P < 0.05)

**Q.** What about the “Mann-Whitney test on tumor volume” value ([1]; DAY 56, vs vehicle group) of the same compound?
**A.** *** (*** = P < 0.001)

**Q.** And the “Best T/C %” value [1, 2]?
**A.** 18.68%

**Q.** And the “Best TGE %” value [1, 2]?
**A.** 145.70%

**Q.** And the “T/C % (at control group day end)” value [1, 2]?
**A.** 18.68%

**Q.** What about the “TGI % (at control group day end)” value [1, 2] of the same compound?
**A.** 121.97%

**Q.** What about the “median TGD × 3 (In days)” value [1, 2] of the same compound?
**A.** >56 days

**Q.** And the “tumor growth inhibition (in words)” value ([1]; MCLA-128 25 mg/kg i.p., Letrozole […] p.o. qdx57)?
**A.** statistically significant tumor growth inhibition

**Q.** And the “Mann-Whitney test on tumor volume: STAT” value ([1]; STAT column, vs vehicle group)?
**A.** *** (*** = P < 0.001)

**Q.** What about the “TFS (Tumor Free Survivor)” value ([1]; number of complete regressions recorded up to Group Day End) of the same compound?
**A.** 1

**Q.** And the “CR (complete regression)” value ([1]; number of mice with 0 to 14 mm^3 tumor size during at least 3 consecutive measurements)?
**A.** 1/10 and 1

**Q.** And the “TS (Tumor Stabilization)” value ([1]; number of mice with constant tumor size during at least 6 consecutive measurements)?
**A.** 1

**Q.** And the “PR (partial regression)” value ([1]; number of mice with tumor size lower than initial during at least 6 consecutive measurements)?
**A.** 7/10 and 7

**Q.** And the “p compared to the group control by Dunn's test” value ([1]; tumor growth inhibition)?
**A.** < 0.05

**Q.** What about the “p compared with the vehicle group, Mann Whitney test” value ([1]; tumor growth inhibition) of the same compound?
**A.** < 0.001

**Q.** And the “Dunn's Multiple Comparison Test on relative body weight” value (DAY 25, vs MCLA-128 25)?
**A.** * (* = P < 0.05)

**Q.** What about the “Dunn's Multiple Comparison Test on relative body weight” value (DAY 28, vs Vehicle MCLA-128) of the same compound?
**A.** * (* = P < 0.05)

**Q.** And the “Dunn's Multiple Comparison Test on relative body weight” value (DAY 32, vs MCLA-128 25)?
**A.** ** (** = P < 0.01)

**Q.** And the “Dunn's Multiple Comparison Test on relative body weight” value (DAY 32, vs Vehicle MCLA-128)?
**A.** ** (** = P < 0.01)

**Q.** What about the “Dunn's Multiple Comparison Test on relative body weight” value (DAY 35, vs MCLA-128 25) of the same compound?
**A.** * (* = P < 0.05)

**Q.** What about the “Dunn's Multiple Comparison Test on relative body weight” value (DAY 35, vs Vehicle MCLA-128) of the same compound?
**A.** ** (** = P < 0.01)

**Q.** And the “Dunn's Multiple Comparison Test on relative body weight” value (DAY 39, vs MCLA-128 25)?
**A.** ** (** = P < 0.01)

**Q.** What about the “Dunn's Multiple Comparison Test on relative body weight” value (DAY 39, vs Vehicle MCLA-128) of the same compound?
**A.** ** (** = P < 0.01)

**Q.** And the “Dunn's Multiple Comparison Test on relative body weight” value (DAY 42, vs Vehicle MCLA-128)?
**A.** ** (** = P < 0.01)

**Q.** What about the “Dunn's Multiple Comparison Test on relative body weight” value (DAY 46, vs MCLA-128 25) of the same compound?
**A.** ** (** = P < 0.01)

**Q.** And the “Dunn's Multiple Comparison Test on relative body weight” value (DAY 46, vs Vehicle MCLA-128)?
**A.** ** (** = P < 0.01)

**Q.** What about the “Dunn's Multiple Comparison Test on relative body weight” value (DAY 49, vs MCLA-128 25) of the same compound?
**A.** ** (** = P < 0.01)

**Q.** What about the “Dunn's Multiple Comparison Test on relative body weight” value (DAY 49, vs Vehicle MCLA-128) of the same compound?
**A.** ** (** = P < 0.01)

**Q.** And the “Dunn's Multiple Comparison Test on relative body weight” value (DAY 53, vs MCLA-128 25)?
**A.** ** (** = P < 0.01)

**Q.** What about the “Dunn's Multiple Comparison Test on relative body weight” value (DAY 53, vs Vehicle MCLA-128) of the same compound?
**A.** ** (** = P < 0.01)

**Q.** What about the “Dunn's Multiple Comparison Test on relative body weight” value (DAY 56, vs MCLA-128 25) of the same compound?
**A.** ** (** = P < 0.01)

**Q.** And the “Dunn's Multiple Comparison Test on relative body weight” value (DAY 56, vs Vehicle MCLA-128)?
**A.** ** (** = P < 0.01)

**Q.** And the “maximum individual body weight loss” value [3]?
**A.** 4.1%

**Q.** And the “maximum mean body weight loss” value [3]?
**A.** no mean body weight loss

**Q.** And the “formation of estrogen-independent tumors” value (HBCx-34 tumors)?
**A.** significantly reduced the formation of estrogen-independent tumors

**Q.** What about the “response of the HBCx-34 PDX model” value (HBCx-34 PDX model) of the same compound?
**A.** low responder

Reference: patent publication US12195551B2, “Combination of an ErbB-2/ErbB-3 bispecific antibody with endocrine therapy for breast cancer” (Merus N.V., priority 2017, dated 2025)
